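Each compound was tested at five concentrations against cells in 96-well plates for 48 hours. GI50: concentration for 50% inhibition of growth.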 Calls of active or inactive are those of the source. Rule as the data show it: active = GI50 up to about 1.1 µM and inactive = higher.
Columns and labels:
Assay in all cases: DTP human tumour cell line panel, 48 h
NCI-H522 = system: NCI-H522
786-0 = system: 786-0
Hs-578T = system: Hs-578T
MCF7 = system: MCF7
M14 = system: M14
RPMI-8226 = system: RPMI-8226
SK-MEL-2 = system: SK-MEL-2
LOX IMVI = system: LOX IMVI
OVCAR-3 = system: OVCAR-3
OVCAR-4 = system: OVCAR-4
HCT-116 = system: HCT-116
KM12 = system: KM12
SF-295 = system: SF-295
UO-31 = system: UO-31
HCT-15 = system: HCT-15
MOLT-4 = system: MOLT-4
U-251 = system: U-251
EKVX = system: EKVX
SK-MEL-28 = system: SK-MEL-28
MDA-N = system: MDA-N

Row | SMILES | GI50 (NCI-H522) | GI50 (786-0) | GI50 (Hs-578T) | GI50 (MCF7) | GI50 (M14) | GI50 (RPMI-8226) | GI50 (SK-MEL-2) | GI50 (LOX IMVI) | GI50 (OVCAR-3) | GI50 (OVCAR-4) | GI50 (HCT-116) | GI50 (KM12) | GI50 (SF-295) | GI50 (UO-31) | GI50 (HCT-15) | GI50 (MOLT-4) | GI50 (U-251) | GI50 (EKVX) | GI50 (SK-MEL-28) | GI50 (MDA-N)
1 | O/N=N/c1ccc(-c2ccccc2)cn1 | 18.8 µM (inactive) | 6.38 µM (inactive) | 23.8 µM (inactive) | 1.44 µM (inactive) | 9.08 µM (inactive) | < 0.01 µM (active) | 31.6 µM (inactive) | 6.21 µM (inactive) | 20.2 µM (inactive) | 23.3 µM (inactive) | 9.08 µM (inactive) | 33.9 µM (inactive) | 8.13 µM (inactive) | 13.2 µM (inactive) | 19.6 µM | 0.0755 µM (active) | 15.7 µM (inactive) | 7.5 µM (inactive) | 45.2 µM (inactive) | 
2 | COc1ccc2c(c1)CCC1C3(CCCC21C)OCCO3 (stereo unspecified) | 15.7 µM (inactive) | 18.5 µM (inactive) |  |  | 18.8 µM (inactive) | 18.8 µM (inactive) | 4.7 µM (inactive) | 15.9 µM (inactive) | 16.1 µM (inactive) | 29.4 µM (inactive) | 16.8 µM (inactive) | 20.3 µM (inactive) | 19.3 µM (inactive) | 16.9 µM (inactive) | 17.1 µM | 14.4 µM (inactive) | 15.9 µM (inactive) | 16.8 µM (inactive) | 20.2 µM (inactive) | 
3 | O=C(CC1(O)C(=O)Nc2c(Cl)cc(Cl)cc21)c1ccc(Br)cc1 (stereo unspecified) | 16.6 µM (inactive) | 13.2 µM (inactive) |  |  | 17.6 µM (inactive) | 13 µM (inactive) | > 41.1 µM (inactive) | 22.5 µM (inactive) | 14.1 µM (inactive) | 12.4 µM (inactive) | 17.5 µM (inactive) | 15.2 µM (inactive) | 29.5 µM (inactive) | 12.9 µM (inactive) | 35 µM | 22.1 µM (inactive) | 13.4 µM (inactive) | 15.2 µM (inactive) | 19.7 µM (inactive) | 
4 | CC(=O)OCC(OC(C)=O)C(OC(C)=O)C(OC(C)=O)C(=O)CNn1c(-c2ccccc2Cl)nc2ccccc2c1=O (stereo unspecified) | > 100 µM (inactive) | > 100 µM (inactive) |  |  | > 100 µM (inactive) | 76 µM (inactive) | > 100 µM (inactive) | > 100 µM (inactive) | > 100 µM (inactive) | > 100 µM (inactive) | > 100 µM (inactive) | > 100 µM (inactive) | > 100 µM (inactive) | > 100 µM (inactive) | > 100 µM | > 100 µM (inactive) | > 100 µM (inactive) | > 100 µM (inactive) | > 100 µM (inactive) | 
5 | CC(=O)C1C(=O)C(=O)N(c2cccc(C)c2C)C1=O (stereo unspecified) |  | > 100 µM (inactive) |  | > 100 µM (inactive) | > 100 µM (inactive) |  | > 100 µM (inactive) | > 100 µM (inactive) | > 100 µM (inactive) |  | > 100 µM (inactive) | > 100 µM (inactive) | > 100 µM (inactive) | > 100 µM (inactive) |  | 22.8 µM (inactive) |  | > 100 µM (inactive) |  | > 100 µM (inactive)
6 | CN1C(=O)[C@@H]2N(CSC2(C)C)C1=S | 29.1 µM (inactive) | > 100 µM (inactive) |  | > 100 µM (inactive) | > 100 µM (inactive) | > 100 µM (inactive) | > 100 µM (inactive) |  | > 100 µM (inactive) | > 100 µM (inactive) | > 100 µM (inactive) | > 100 µM (inactive) | > 100 µM (inactive) | > 100 µM (inactive) | > 100 µM | > 100 µM (inactive) | > 100 µM (inactive) | > 100 µM (inactive) | > 100 µM (inactive) | > 100 µM (inactive)
7 | CNC(=O)NCCCCC(NC(C)=O)C(=O)NCc1ccccc1 (stereo unspecified) | > 100 µM (inactive) | > 100 µM (inactive) |  |  | > 100 µM (inactive) | > 100 µM (inactive) | > 100 µM (inactive) | > 100 µM (inactive) | > 100 µM (inactive) | > 100 µM (inactive) | > 100 µM (inactive) | > 100 µM (inactive) | > 100 µM (inactive) | > 100 µM (inactive) | > 100 µM | > 100 µM (inactive) | > 100 µM (inactive) | > 100 µM (inactive) | > 100 µM (inactive) | 
8 | CC1=C2C(=O)c3ccccc3C(=O)[C@H]2C[C@@H](N2CCCCCC2=O)O1 | 19.9 µM (inactive) | 18.4 µM (inactive) | 30.5 µM (inactive) |  | 15.4 µM (inactive) | 14.6 µM (inactive) | 23.1 µM (inactive) | 17.3 µM (inactive) | 18 µM (inactive) | 17.2 µM (inactive) |  | 16.7 µM (inactive) | 18.8 µM (inactive) | 17 µM (inactive) | 20.7 µM | 14.7 µM (inactive) | 23.8 µM (inactive) | 23.1 µM (inactive) | 18.7 µM (inactive) | 16 µM (inactive)
9 | Cc1cccc2[s+]snc12 | 18.4 µM (inactive) | > 76.9 µM (inactive) |  |  | > 68.5 µM (inactive) | > 42.4 µM (inactive) | > 100 µM (inactive) | 49.5 µM (inactive) | 30.1 µM (inactive) | > 100 µM (inactive) | > 59.4 µM (inactive) | > 100 µM (inactive) | > 100 µM (inactive) | > 100 µM (inactive) | > 47.4 µM | 25.8 µM (inactive) | > 100 µM (inactive) | > 51.3 µM (inactive) | > 47.5 µM (inactive) | 
10 | CC1C2(C)OC(=N)C(C#N)(C(c3ccco3)O2)C1(C#N)C#N (stereo unspecified) |  | 20.8 µM (inactive) | 24.9 µM (inactive) | 22.4 µM (inactive) | 19.1 µM (inactive) |  | 29.4 µM (inactive) | 19.2 µM (inactive) | 21.3 µM (inactive) |  | 26.7 µM (inactive) | 59.8 µM (inactive) | > 100 µM (inactive) | 38.5 µM (inactive) | 12.5 µM | 32.2 µM (inactive) | 24.4 µM (inactive) | 34 µM (inactive) | 18.4 µM (inactive) | 19.8 µM (inactive)
11 | CC(C)=CCC/C(C)=C/CCC1(C)C2COC(=O)C21 (stereo unspecified) | 53.2 µM (inactive) | > 100 µM (inactive) |  | 34.8 µM (inactive) |  |  | 70.5 µM (inactive) | 26.7 µM (inactive) | 37 µM (inactive) | 42.8 µM (inactive) | 31.9 µM (inactive) | 34.9 µM (inactive) | 77.4 µM (inactive) | 43.3 µM (inactive) | 57.4 µM | 30.9 µM (inactive) | 66.2 µM (inactive) | 53.2 µM (inactive) | 29 µM (inactive) | 54.7 µM (inactive)
12 | CCOC(=O)CC(C)C1(C=O)CCCCC1=O (stereo unspecified) | 90.4 µM (inactive) | 31 µM (inactive) |  |  | 29.6 µM (inactive) | 20.6 µM (inactive) | > 100 µM (inactive) | 18.3 µM (inactive) | > 100 µM (inactive) | 79.8 µM (inactive) | > 100 µM (inactive) | > 100 µM (inactive) | > 100 µM (inactive) | > 100 µM (inactive) | 38 µM | > 100 µM (inactive) | > 100 µM (inactive) | > 100 µM (inactive) | > 100 µM (inactive) | 
13 | Cc1c(C(=O)O)c2cc3ccccc3cc2c(=O)n1C | > 10 µM (inactive) | > 10 µM (inactive) | > 10 µM (inactive) | > 10 µM (inactive) | > 10 µM (inactive) |  | > 10 µM (inactive) | > 10 µM (inactive) | > 10 µM (inactive) | > 10 µM (inactive) |  | > 10 µM (inactive) | > 10 µM (inactive) | > 10 µM (inactive) | > 10 µM |  | > 10 µM (inactive) | > 10 µM (inactive) |  | > 10 µM (inactive)
14 | Nc1ncnc2c1ncn2C1CC(O)C(CO)O1 (stereo unspecified) | > 100 µM (inactive) | > 100 µM (inactive) |  | > 100 µM (inactive) | > 100 µM (inactive) | > 100 µM (inactive) | > 100 µM (inactive) | > 100 µM (inactive) | > 100 µM (inactive) | > 100 µM (inactive) | > 100 µM (inactive) | 62.7 µM (inactive) | > 100 µM (inactive) | > 100 µM (inactive) | > 100 µM | > 100 µM (inactive) | > 100 µM (inactive) | > 100 µM (inactive) | > 100 µM (inactive) | > 100 µM (inactive)
15 | CCC(CCCN)Nc1cc(OC)cc2c(C)ccnc12 (stereo unspecified) |  | 15.4 µM (inactive) | 13 µM (inactive) | 15 µM (inactive) | 15.2 µM (inactive) |  | 20.8 µM (inactive) | 16.3 µM (inactive) | 15.4 µM (inactive) | 17.8 µM (inactive) | 15.9 µM (inactive) | 14.9 µM (inactive) | 17.3 µM (inactive) | 12.9 µM (inactive) | 22.9 µM | 15.8 µM (inactive) |  | 18.4 µM (inactive) | 16.9 µM (inactive) | 17.5 µM (inactive)
16 | Cc1ccc(S(=O)(=O)Nn2c(-c3ccccc3)c(C#N)c(-c3ccc(Cl)cc3)c(C#N)c2=O)cc1 |  | 6.79 µM (inactive) |  | 19.4 µM (inactive) | 18.4 µM (inactive) | 14 µM (inactive) | 20.2 µM (inactive) | 21.4 µM (inactive) |  | 38.8 µM (inactive) | 18.9 µM (inactive) |  | 26.8 µM (inactive) |  | 26.9 µM | 18.7 µM (inactive) | 21.5 µM (inactive) |  | 24.4 µM (inactive) | 28.4 µM (inactive)
17 | CN1Cc2cc3cc4c(cc3nc2N(C)C1)OCCO4 | > 100 µM (inactive) | > 100 µM (inactive) |  | > 100 µM (inactive) | > 100 µM (inactive) | 54.7 µM (inactive) | > 100 µM (inactive) | > 100 µM (inactive) |  | > 100 µM (inactive) | > 100 µM (inactive) | > 100 µM (inactive) | > 100 µM (inactive) |  | > 100 µM | 64 µM (inactive) | > 100 µM (inactive) | > 100 µM (inactive) |  | > 100 µM (inactive)
